This experiment has as its system IL-1b. Description: Mouse BMDM IL-1b Assay. The format is cell-based. The conditions noted are these: Macrophage; mouse bone marrow derived macrophages (C57BL6); 200 ng/mL LPS 3 h, compound 30 min, 5 mM ATP 45 min; IL-1b ELISA of supernatant. The method, boiled down: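 C57BL6 bone marrow macrophages, differentiated 7 days with 20 ng/mL MCSF, were primed with 200 ng/mL LPS for 3 h at 37° C, given compound for 30 min, then 5 mM ATP for 45 min. Supernatant IL-1b was measured by ELISA against standards; IC50 fitted by Levenberg-Marquardt.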
In turn, `CN1CCCc2oc(S(=O)(=O)NC(=O)Nc3c4c(cc5c3CCC5)CCC4)cc2C1` [Compound 87, N-((1,2,3,5,6,7-hexahydro-s-indacen-4-yl)carbamoyl)-5-methyl-5,6,7,8-tetrahydro-4H-furo[3,2-c]azepine-2-sulfonamide] came in with an IC50 below 100 nM.

As to `C=CCC1(O)c2cc(S(=O)(=O)NC(=O)Nc3c4c(cc5c3CCC5)CCC4)oc2CCC1(C)C` (stereo not drawn) [Compound 88, 4-allyl-N-((1,2,3,5,6,7-hexahydro-s-indacen-4-yl)carbamoyl)-4-hydroxy-5,5-dimethyl-4,5,6,7-tetrahydrobenzofuran-2-sulfonamide], the IC50 is below 100 nM.

Molecule `O=C(Nc1c2c(c(F)c3c1CCC3)CCC2)NS(=O)(=O)c1cc2c(o1)CCC/C2=N/O` [Compound 89, (Z)-N-((8-fluoro-1,2,3,5,6,7-hexahydro-s-indacen-4-yl)carbamoyl)-4-(hydroxyimino)-4,5,6,7-tetrahydrobenzofuran-2-sulfonamide] yielded an IC50 below 100 nM.

As to `O=C(Nc1c2c(c(F)c3c1CCC3)CCC2)NS(=O)(=O)c1cc2c(o1)CCC/C2=N\O` [Compound 90, (E)-N-((8-fluoro-1,2,3,5,6,7-hexahydro-s-indacen-4-yl)carbamoyl)-4-(hydroxyimino)-4,5,6,7-tetrahydrobenzofuran-2-sulfonamide], the IC50 is below 100 nM.

Take `Cc1c(S(=O)(=O)NC(=O)Nc2c3c(cc4c2CCC4)CCC3)oc2c1C(=O)CCC2` [Compound 91, N-((1,2,3,5,6,7-hexahydro-s-indacen-4-yl)carbamoyl)-3-methyl-4-oxo-4,5,6,7-tetrahydrobenzofuran-2-sulfonamide]: the IC50 is below 100 nM.

`Cc1c(S(=O)(=O)NC(=O)Nc2c3c(cc4c2CCC4)CCC3)oc2c1C(O)CCC2` (stereo not drawn) [Compound 92, N-((1,2,3,5,6,7-hexahydro-s-indacen-4-yl)carbamoyl)-4-hydroxy-3-methyl-4,5,6,7-tetrahydrobenzofuran-2-sulfonamide] gave a 50% inhibitory concentration (IC50) below 100 nM.

Turning to `Cc1c(S(=O)(=O)NC(=O)Nc2c3c(cc4c2CCC4)CCC3)oc2c1C(C)(O)CCC2` (stereo not drawn) [Compound 93, N-((1,2,3,5,6,7-hexahydro-s-indacen-4-yl)carbamoyl)-4-hydroxy-3,4-dimethyl-4,5,6,7-tetrahydrobenzofuran-2-sulfonamide], the IC50 is below 100 nM.

On to `CCOC(=O)CC1(C)CCCc2oc(S(=O)(=O)NC(=O)Nc3c4c(cc5c3CCC5)CCC4)c(C)c21` (stereo not drawn) [Compound 94, ethyl 2-(2-(N-((1,2,3,5,6,7-hexahydro-s-indacen-4-yl)carbamoyl)sulfamoyl)-3,4-dimethyl-4,5,6,7-tetrahydrobenzofuran-4-yl)acetate], for which the IC50 lay within 100 to 1000 nM.

The molecule `O=C(Nc1c2c(c(Br)c3c1CCC3)CCC2)NS(=O)(=O)c1cc2c(o1)CCC/C2=N\O` [Compound 95, (E)-N-((8-bromo-1,2,3,5,6,7-hexahydro-s-indacen-4-yl)carbamoyl)-4-(hydroxyimino)-4,5,6,7-tetrahydrobenzofuran-2-sulfonamide] displayed an IC50 of 100 to 1000 nM.

Molecule `O=C(Nc1c2c(c(Cl)c3c1CCC3)CCC2)NS(=O)(=O)c1cc2c(o1)CCC/C2=N\O` [Compound 96, (E)-N-((8-chloro-1,2,3,5,6,7-hexahydro-s-indacen-4-yl)carbamoyl)-4-(hydroxyimino)-4,5,6,7-tetrahydrobenzofuran-2-sulfonamide] registered an IC50 of 100 to 1000 nM.

With `CC(C)c1ccc(F)c(C(C)C)c1NC(=O)NS(=O)(=O)c1cc2c(o1)CCC/C2=N/O` [Compound 97, (Z)-N-((3-fluoro-2,6-diisopropylphenyl)carbamoyl)-4-(hydroxyimino)-4,5,6,7-tetrahydrobenzofuran-2-sulfonamide], the IC50 lay in the range of 100 to 1000 nM.

For `CC(C)c1ccc(F)c(C(C)C)c1NC(=O)NS(=O)(=O)c1cc2c(o1)CCC/C2=N\O` [Compound 98, (E)-N-((3-fluoro-2,6-diisopropylphenyl)carbamoyl)-4-(hydroxyimino)-4,5,6,7-tetrahydrobenzofuran-2-sulfonamide], the IC50 was 100 to 1000 nM.

As for `Cc1c(S(=O)(=O)NC(=O)Nc2c3c(cc4c2CCC4)CCC3)oc2c1/C(=N\O)CCC2` [Compound 99, (Z)-N-((1,2,3,5,6,7-hexahydro-s-indacen-4-yl)carbamoyl)-4-(hydroxyimino)-3-methyl-4,5,6,7-tetrahydrobenzofuran-2-sulfonamide], the IC50 was 100 to 1000 nM.

As for `CC(C)c1c(F)c(Cl)c(F)c(C(C)C)c1NC(=O)NS(=O)(=O)c1cc2c(o1)CCC/C2=N/O` [Compound 100, (Z)-N-((4-chloro-3,5-difluoro-2,6-diisopropylphenyl)carbamoyl)-4-(hydroxyimino)-4,5,6,7-tetrahydrobenzofuran-2-sulfonamide], the IC50 fell in the range of 1000 to 10000 nM.

`CC(C)c1c(F)c(Cl)c(F)c(C(C)C)c1NC(=O)NS(=O)(=O)c1cc2c(o1)CCC/C2=N\O` [Compound 101, (E)-N-((4-chloro-3,5-difluoro-2,6-diisopropylphenyl)carbamoyl)-4-(hydroxyimino)-4,5,6,7-tetrahydrobenzofuran-2-sulfonamide] displayed an IC50 of 100 to 1000 nM.

`CC(C)c1c(F)c(Cl)c(F)c(C(C)C)c1NC(=O)NS(=O)(=O)c1cc2c(o1)CCCC2O` (stereo not drawn) [Compound 102, N-((4-chloro-3,5-difluoro-2,6-diisopropylphenyl)carbamoyl)-4-hydroxy-4,5,6,7-tetrahydrobenzofuran-2-sulfonamide] had an IC50 of 100 to 1000 nM.

In turn, `CC(C)c1c(F)c(Cl)c(F)c(C(C)C)c1NC(=O)NS(=O)(=O)c1cc2c(o1)CCCC2(C)O` (stereo not drawn) [Compound 103, N-((4-chloro-3,5-difluoro-2,6-diisopropylphenyl)carbamoyl)-4-hydroxy-4-methyl-4,5,6,7-tetrahydrobenzofuran-2-sulfonamide] came in with an IC50 of 100 to 1000 nM.

In turn, `O=C(O)CC1(O)CCCc2oc(S(=O)(=O)NC(=O)Nc3c4c(cc5c3CCC5)CCC4)cc21` (stereo not drawn) [Compound 104, 2-(2-(N-((1,2,3,5,6,7-hexahydro-s-indacen-4-yl)carbamoyl)sulfamoyl)-4-hydroxy-4,5,6,7-tetrahydrobenzofuran-4-yl)acetic acid] yielded an IC50 of 1000 to 10000 nM.

`CCOC(=O)C#CC1(O)CCCc2oc(S(=O)(=O)NC(=O)Nc3c4c(cc5c3CCC5)CCC4)cc21` (stereo not drawn) [Compound 105, ethyl 3-(2-(N-((1,2,3,5,6,7-hexahydro-s-indacen-4-yl)carbamoyl)sulfamoyl)-4-hydroxy-4,5,6,7-tetrahydrobenzofuran-4-yl)propiolate] came in with an IC50 of 100 to 1000 nM.

`CC1(O)CCCCc2oc(S(=O)(=O)NC(=O)Nc3c4c(c(F)c5c3CCC5)CCC4)cc21` (stereo not drawn) [Compound 106, N-((8-fluoro-1,2,3,5,6,7-hexahydro-s-indacen-4-yl)carbamoyl)-4-hydroxy-4-methyl-5,6,7,8-tetrahydro-4H-cyclohepta[b]furan-2-sulfonamide] had an IC50 below 100 nM.

`CC1(O)CCCCc2oc(S(=O)(=O)NC(=O)Nc3c4c(c(Cl)c5c3CCC5)CCC4)cc21` (stereo not drawn) [Compound 107, N-((8-chloro-1,2,3,5,6,7-hexahydro-s-indacen-4-yl)carbamoyl)-4-hydroxy-4-methyl-5,6,7,8-tetrahydro-4H-cyclohepta[b]furan-2-sulfonamide] returned an IC50 below 100 nM.

The molecule `CC1(O)CCCCc2oc(S(=O)(=O)NC(=O)Nc3c4c(c(Br)c5c3CCC5)CCC4)cc21` (stereo not drawn) [Compound 108, N-((8-bromo-1,2,3,5,6,7-hexahydro-s-indacen-4-yl)carbamoyl)-4-hydroxy-4-methyl-5,6,7,8-tetrahydro-4H-cyclohepta[b]furan-2-sulfonamide] displayed an IC50 below 100 nM.

The molecule `CC(C)c1cccc(C(C)C)c1NC(=O)NS(=O)(=O)c1cc2c(o1)CCCCC2(C)O` (stereo not drawn) [Compound 109, N-((2,6-diisopropylphenyl)carbamoyl)-4-hydroxy-4-methyl-5,6,7,8-tetrahydro-4H-cyclohepta[b]furan-2-sulfonamide] had an IC50 of 100 to 1000 nM.

Turning to `CC(C)c1ccc(F)c(C(C)C)c1NC(=O)NS(=O)(=O)c1cc2c(o1)CCCCC2(C)O` (stereo not drawn) [Compound 110, N-((3-fluoro-2,6-diisopropylphenyl)carbamoyl)-4-hydroxy-4-methyl-5,6,7,8-tetrahydro-4H-cyclohepta[b]furan-2-sulfonamide], the IC50 is 100 to 1000 nM.

Regarding `CC(C)c1ccc(Cl)c(C(C)C)c1NC(=O)NS(=O)(=O)c1cc2c(o1)CCCCC2(C)O` (stereo not drawn) [Compound 111, N-((3-chloro-2,6-diisopropylphenyl)carbamoyl)-4-hydroxy-4-methyl-5,6,7,8-tetrahydro-4H-cyclohepta[b]furan-2-sulfonamide], the IC50 was in the range of 100 to 1000 nM.

In the case of `CN1CCc2oc(S(=O)(=O)NC(=O)Nc3c4c(cc5c3CCC5)CCC4)cc2C1=O` [Compound 112, N-((1,2,3,5,6,7-hexahydro-s-indacen-4-yl)carbamoyl)-5-methyl-4-oxo-4,5,6,7-tetrahydrofuro[3,2-c]pyridine-2-sulfonamide], the IC50 lay within 100 to 1000 nM.

As to `CN1CCc2sc(S(=O)(=O)NC(=O)Nc3c4c(cc5c3CCC5)CCC4)cc2C1` [Compound 113, N-((1,2,3,5,6,7-hexahydro-s-indacen-4-yl)carbamoyl)-5-methyl-4,5,6,7-tetrahydrothieno[3,2-c]pyridine-2-sulfonamide], the IC50 is below 100 nM.

As to `CN1CCc2sc(S(=O)(=O)NC(=O)Nc3c4c(cc5c3CCC5)CCC4)cc2C1=O` [Compound 114, N-((1,2,3,5,6,7-hexahydro-s-indacen-4-yl)carbamoyl)-5-methyl-4-oxo-4,5,6,7-tetrahydrothieno[3,2-c]pyridine-2-sulfonamide], the IC50 is 100 to 1000 nM.

The molecule `CN1CCc2oc(S(=O)(=O)NC(=O)Nc3c4c(cc5c3CCC5)CCC4)cc2C1` [Compound 115, N-((1,2,3,5,6,7-hexahydro-s-indacen-4-yl)carbamoyl)-5-methyl-4,5,6,7-tetrahydrofuro[3,2-c]pyridine-2-sulfonamide] returned an IC50 below 100 nM.

`O=C(Nc1c2c(c(F)c3c1CCC3)CCC2)NS(=O)(=O)c1cc2c(o1)CCCCC2O` (stereo not drawn) [Compound 116, N-((8-fluoro-1,2,3,5,6,7-hexahydro-s-indacen-4-yl)carbamoyl)-4-hydroxy-5,6,7,8-tetrahydro-4H-cyclohepta[b]furan-2-sulfonamide] yielded an IC50 below 100 nM.

The values above are taken from US12466800B2, “N-((1,2,3,5,6,7-hexahydro-S-indacen-4-yl)carbamoyl)-4, 5, 6, 7-tetrahydrobenzofuran-2-sulfonamide derivatives and related compounds as NLPR3 modulators for the treatment of multiple sclerosis (MS)” (Zomagen Biosciences Ltd, priority 2019, dated 2025).
